Earlier results as cited in patent US7807599B2, “Hydroconversion processes employing multi-metallic catalysts and method for making thereof” (Chevron U. S. A. Inc., priority 2007, dated 2010).

System: rats
Conditions: as single oral dose to rats

O=CC(=O)O [glyoxylic]
LD50: 3000 mg/kg
